Experimental data taken from BindingDB's records for doi:10.1016/0024-3205(83)90740-3 (University of Toronto, 1983).
Values joined by “and” are separate entries in the source; they are usually repeats but may differ in a detail not shown here. Identical values can stand only once.

Biological target: 5-hydroxytryptamine receptor 2A (Rattus norvegicus, UniProt P14842)
Sequence (P14842 whole entry): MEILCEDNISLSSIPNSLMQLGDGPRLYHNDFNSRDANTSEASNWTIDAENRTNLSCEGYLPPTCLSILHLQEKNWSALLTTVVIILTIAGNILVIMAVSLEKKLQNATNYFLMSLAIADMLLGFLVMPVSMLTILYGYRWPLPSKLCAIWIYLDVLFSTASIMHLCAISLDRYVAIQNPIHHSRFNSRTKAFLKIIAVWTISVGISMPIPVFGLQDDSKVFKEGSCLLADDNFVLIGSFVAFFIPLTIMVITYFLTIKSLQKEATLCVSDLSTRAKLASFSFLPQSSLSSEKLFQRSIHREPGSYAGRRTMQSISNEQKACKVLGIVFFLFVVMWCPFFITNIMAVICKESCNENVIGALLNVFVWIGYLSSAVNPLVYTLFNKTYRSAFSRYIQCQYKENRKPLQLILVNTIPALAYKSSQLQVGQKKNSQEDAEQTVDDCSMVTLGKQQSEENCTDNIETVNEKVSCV

Structure (SMILES) | Ki
CN(C)CCCSc1ccccc1NC(=O)/C=C/c1ccccc1 [CINANSERIN] | 0.0101 µM and 0.00545 µM and 0.00445 µM
c1ccc2nc(N3CCNCC3)ccc2c1 [2-Piperazin-1-yl-quinoline (Quipazine)] | 0.575 µM and 0.226 µM and 0.1 µM
NCCc1c[nH]c2ccccc12 [1H-indole-3-ethanamine] | 2.93 µM and 1.68 µM and 0.538 µM
